In ChEMBL document CHEMBL1201862, “PubChem BioAssay data set” (2004):
Active and inactive are the calls of the source.

Tests used:
[1] = molecular target: 5-hydroxytryptamine receptor 5A (Homo sapiens, UniProt P47898); assay: Counterscreen for agonists of OPRM1-OPRD1 heterodimerization: luminescence-based cell-based high throughput dose response assay to identify agonists of 5-hydroxytryptamine (serotonin) 5A receptor (HTR5A). [Related pubchem assays (depositor defined):AID504326, AID504355, AID504692, AID504904, AID504905]; assay type: functional
Chain of 5-hydroxytryptamine receptor 5A (P47898 whole entry): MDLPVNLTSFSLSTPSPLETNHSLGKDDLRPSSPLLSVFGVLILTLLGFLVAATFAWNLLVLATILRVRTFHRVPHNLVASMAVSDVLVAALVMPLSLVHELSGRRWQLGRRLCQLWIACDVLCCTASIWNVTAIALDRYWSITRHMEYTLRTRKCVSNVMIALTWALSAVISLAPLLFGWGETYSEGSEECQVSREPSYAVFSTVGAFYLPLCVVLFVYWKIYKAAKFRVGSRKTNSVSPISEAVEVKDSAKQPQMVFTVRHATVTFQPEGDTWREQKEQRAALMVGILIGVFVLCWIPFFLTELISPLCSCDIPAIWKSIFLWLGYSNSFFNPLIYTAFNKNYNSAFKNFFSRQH

[2] = molecular target: Delta-type opioid receptor (Homo sapiens, UniProt P41143); assay: Counterscreen for agonists of heterodimerization of the mu 1 (OPRM1) and delta 1 (OPRD1) opioid receptors: Luminescence-based cell-based high throughput dose response assay to identify agonists of OPRD1 homodimerization. [Related pubchem assays (depositor defined):AID504326, AID504355, AID504692, AID504904, AID504905]; assay type: functional
Chain of Delta-type opioid receptor (P41143 whole entry): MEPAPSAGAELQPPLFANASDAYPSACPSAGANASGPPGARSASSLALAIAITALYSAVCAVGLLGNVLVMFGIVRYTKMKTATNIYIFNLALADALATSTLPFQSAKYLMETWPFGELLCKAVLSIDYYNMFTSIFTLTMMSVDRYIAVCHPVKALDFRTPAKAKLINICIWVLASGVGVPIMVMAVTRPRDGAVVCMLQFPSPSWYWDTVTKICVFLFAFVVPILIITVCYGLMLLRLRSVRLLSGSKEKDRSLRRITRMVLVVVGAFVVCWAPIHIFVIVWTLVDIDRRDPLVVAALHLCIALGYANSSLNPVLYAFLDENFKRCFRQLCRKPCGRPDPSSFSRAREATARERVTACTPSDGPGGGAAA

[3] = non-specific 3'UTR reporter inhibition in Clone20-Shn3RL – cell-based, Renilla luciferase, cherry-picked, counter-screen for Shn3 inhibitor project, dose response (AID 624133); assay type: functional
Mu-type opioid receptor = Mu-type opioid receptor (Homo sapiens, UniProt P35372); assay: Counterscreen for agonists of heterodimerization of the mu 1 (OPRM1) and delta 1 (OPRD1) opioid receptors: Luminescence-based cell-based high throughput dose response assay to identify agonists of OPRM1 homodimerization.; assay type: functional;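 further: U2OS cells expressing OPRM1 and beta-arrestin as split beta-galactosidase partners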
Chain of Mu-type opioid receptor (P35372 whole entry): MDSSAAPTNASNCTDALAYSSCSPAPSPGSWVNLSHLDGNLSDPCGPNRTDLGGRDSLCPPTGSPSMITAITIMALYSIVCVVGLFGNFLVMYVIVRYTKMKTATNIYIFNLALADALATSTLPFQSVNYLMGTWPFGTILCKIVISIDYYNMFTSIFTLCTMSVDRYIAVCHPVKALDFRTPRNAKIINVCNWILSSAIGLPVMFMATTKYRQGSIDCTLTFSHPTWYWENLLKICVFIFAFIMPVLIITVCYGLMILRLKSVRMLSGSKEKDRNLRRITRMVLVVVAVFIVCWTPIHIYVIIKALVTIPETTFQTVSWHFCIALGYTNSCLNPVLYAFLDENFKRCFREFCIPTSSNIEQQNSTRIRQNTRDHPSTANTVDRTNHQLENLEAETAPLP

[4] = loss of viability in HepG2 cells – cell-based, CellTiter-Glo, cherry-picked, cytotoxicity control for Shn3 inhibitor project, dose response (AID 624134); assay type: functional
[5] = reduction of Shn3 3'UTR-driven luciferase in osteoblasts – cell-based, Clone20 osteoblasts, firefly luciferase, cherry-picked, dose response (AID 624132); assay type: functional;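 further: firefly luciferase luminescence from reporter carrying the Shn3 3'UTR in osteoblasts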
[6] = molecular target: Glucose-6-phosphate 1-dehydrogenase (Homo sapiens, UniProt P11413); assay: inhibition of Homo sapiens G6PD, dose series – biochemical, fluorescence, selectivity assay for P. falciparum G6PD inhibitor project, dose response (AID 504792); assay type: functional
Chain of Glucose-6-phosphate 1-dehydrogenase (P11413 whole entry): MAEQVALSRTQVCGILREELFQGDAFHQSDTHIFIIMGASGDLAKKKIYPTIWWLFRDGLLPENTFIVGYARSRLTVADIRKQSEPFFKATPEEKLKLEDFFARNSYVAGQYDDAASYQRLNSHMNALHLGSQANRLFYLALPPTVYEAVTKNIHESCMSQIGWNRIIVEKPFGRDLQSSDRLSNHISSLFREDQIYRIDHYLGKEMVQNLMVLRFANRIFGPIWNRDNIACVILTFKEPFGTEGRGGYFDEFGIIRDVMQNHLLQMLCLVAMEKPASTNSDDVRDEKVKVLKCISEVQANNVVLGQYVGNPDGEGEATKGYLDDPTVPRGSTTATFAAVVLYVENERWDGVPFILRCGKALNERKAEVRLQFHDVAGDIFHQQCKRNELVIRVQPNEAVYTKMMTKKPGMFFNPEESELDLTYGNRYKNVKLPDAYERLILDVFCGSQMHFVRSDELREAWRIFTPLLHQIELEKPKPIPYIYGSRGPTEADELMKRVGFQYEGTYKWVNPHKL

[7] = Luminescence Cell-Based Dose Confirmation HTS to Identify Activators of 5'UTR Stem-Loop Driven Alpha-Synuclein mRNA Translation in H4 Neuroglioblastoma Cells. [Related pubchem assays: 1829 (Project Summary), 1814 (Primary HTS)]; assay type: functional
[8] = Luminescence Cell-Based Dose Response HTS to Identify Activators of Luciferase Translation or Activity in H4 […] Cells. [Related pubchem assays: 1829 (Project Summary), 1814 (Primary HTS)]; assay type: functional
H4 = assay: Luminescence Cell-Based Dose Response HTS to Identify Activators of 5'UTR Stem-Loop Driven Prion Protein mRNA Translation in H4 Neuroglioblastoma Cells. [Related pubchem assays: 1829 (Project Summary), 1814 (Primary HTS)]; assay type: functional; conditions: Homo sapiens
[9] = molecular target: T1, Microphthalmia-associated transcription factor (Homo sapiens, UniProt O75030); assay: reducers of TRPM1 reporter luminescence, concentration series – cell-based, SK-MEL-5, cherry-picked, set 3, MITF inhibitor project, dose response (AID 493073); assay type: functional;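 further: SK-MEL-5 melanoma cells with luciferase driven by the MITF target TRPM1 promoter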
T1 sequence (O75030 whole entry): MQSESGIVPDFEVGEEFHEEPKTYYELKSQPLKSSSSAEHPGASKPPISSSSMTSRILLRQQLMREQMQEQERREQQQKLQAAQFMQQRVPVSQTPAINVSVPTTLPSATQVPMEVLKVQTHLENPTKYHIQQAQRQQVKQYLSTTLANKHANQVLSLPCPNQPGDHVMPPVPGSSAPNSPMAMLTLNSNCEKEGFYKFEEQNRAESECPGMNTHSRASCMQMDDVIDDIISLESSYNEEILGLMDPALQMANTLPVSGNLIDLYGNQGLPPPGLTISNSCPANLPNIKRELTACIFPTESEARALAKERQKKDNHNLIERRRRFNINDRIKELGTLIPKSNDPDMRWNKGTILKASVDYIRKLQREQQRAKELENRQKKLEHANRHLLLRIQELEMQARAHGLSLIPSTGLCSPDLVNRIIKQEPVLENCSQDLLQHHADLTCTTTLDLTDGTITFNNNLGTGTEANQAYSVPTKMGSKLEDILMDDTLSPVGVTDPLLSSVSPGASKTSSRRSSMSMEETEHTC

[10] = Luminescence Cell-Based Dose Retest to Confirm Inhibitors of Cancer Stem Cells. [Related pubchem assays (depositor defined):AID2717, AID2721]; assay type: functional; conditions: Homo sapiens
[11] = molecular target: T2, High affinity choline transporter 1 (Homo sapiens, UniProt Q9GZV3); assay: human choline transporter blockers, potency – cell-based, 5-point CRC, membrane potential dye, dose response (AID 504840); assay type: functional
T2 sequence (Q9GZV3 whole entry): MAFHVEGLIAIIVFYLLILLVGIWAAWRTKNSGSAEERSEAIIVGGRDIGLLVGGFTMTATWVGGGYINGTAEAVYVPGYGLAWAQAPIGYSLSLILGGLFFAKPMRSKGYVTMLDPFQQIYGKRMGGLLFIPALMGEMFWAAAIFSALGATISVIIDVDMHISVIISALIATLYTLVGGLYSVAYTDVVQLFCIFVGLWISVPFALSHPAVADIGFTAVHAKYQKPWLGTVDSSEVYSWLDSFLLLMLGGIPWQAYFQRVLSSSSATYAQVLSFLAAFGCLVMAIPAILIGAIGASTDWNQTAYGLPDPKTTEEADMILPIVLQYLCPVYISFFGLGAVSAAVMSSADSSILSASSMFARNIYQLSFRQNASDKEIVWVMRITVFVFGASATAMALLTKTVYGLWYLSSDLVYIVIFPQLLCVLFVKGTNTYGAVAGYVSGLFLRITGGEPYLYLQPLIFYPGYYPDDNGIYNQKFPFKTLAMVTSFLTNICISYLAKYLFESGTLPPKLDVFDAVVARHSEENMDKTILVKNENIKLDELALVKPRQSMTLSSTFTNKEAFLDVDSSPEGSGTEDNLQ

[12] = viability loss of HMLE_sh_eGFP cells – cell-based, luminescence, counter-screen for HMLE_sh_ECad selective toxicity project, dose response (AID 463074); assay type: functional, Homo sapiens;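 further: HMLE human mammary epithelial cells expressing control shRNA against eGFP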
[13] = molecular target: Dual specificity tyrosine-phosphorylation-regulated kinase 1A (Rattus norvegicus, UniProt Q63470); assay type: biochemical, Homo sapiens
Cytochrome P450 2C19 = Cytochrome P450 2C19 (Homo sapiens, UniProt P33261); assay: Cytochrome panel assay with activity outcomes. Panel member name: p450-cyp2c19 Compounds with AC50 equal or less than 10 uM are considered active; assay type: functional
Chain of Cytochrome P450 2C19 (P33261 whole entry): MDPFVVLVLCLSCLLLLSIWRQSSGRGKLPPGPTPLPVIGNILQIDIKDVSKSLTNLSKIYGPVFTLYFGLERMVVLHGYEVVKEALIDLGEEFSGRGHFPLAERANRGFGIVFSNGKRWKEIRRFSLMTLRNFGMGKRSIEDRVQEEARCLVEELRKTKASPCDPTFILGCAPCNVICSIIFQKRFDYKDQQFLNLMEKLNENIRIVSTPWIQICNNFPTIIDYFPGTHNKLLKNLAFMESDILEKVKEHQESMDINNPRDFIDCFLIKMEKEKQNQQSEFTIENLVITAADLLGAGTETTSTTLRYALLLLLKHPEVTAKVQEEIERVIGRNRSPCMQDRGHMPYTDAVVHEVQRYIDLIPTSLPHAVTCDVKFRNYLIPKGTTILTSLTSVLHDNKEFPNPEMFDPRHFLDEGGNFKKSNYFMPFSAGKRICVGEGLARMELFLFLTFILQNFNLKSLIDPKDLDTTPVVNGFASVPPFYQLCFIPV

Streptococcus = assay: GAS UMAA2166 growth inhibition – luminescence, BacTiterGlo, counter-screen for streptokinase expression inhibitor project, dose response (AID 1915); assay type: functional, organism-based;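 further: potency for reduction of bacterial viability or growth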
[14] = tested on: Streptococcus sp. 'group A'; assay: Streptococcus pyogenes SK(-)GAS viability under kanamycin – luminescence, BacTiterGlo, confirmation, counter-screen for streptokinase expression inhibitor project, dose response (AID 1900); assay type: functional, organism-based
Streptokinase A = molecular target: T3, Streptokinase A (Streptococcus pyogenes serotype M1, UniProt P10520); assay: viability-normalized secreted streptokinase activity reduction – plasminogen activation absorbance, OD405, dose response (AID 1914); assay type: functional, Streptococcus pyogenes M1 GAS;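 further: secreted streptokinase activity via plasminogen activation per viability signal from cell pellet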
T3 sequence (P10520 whole entry): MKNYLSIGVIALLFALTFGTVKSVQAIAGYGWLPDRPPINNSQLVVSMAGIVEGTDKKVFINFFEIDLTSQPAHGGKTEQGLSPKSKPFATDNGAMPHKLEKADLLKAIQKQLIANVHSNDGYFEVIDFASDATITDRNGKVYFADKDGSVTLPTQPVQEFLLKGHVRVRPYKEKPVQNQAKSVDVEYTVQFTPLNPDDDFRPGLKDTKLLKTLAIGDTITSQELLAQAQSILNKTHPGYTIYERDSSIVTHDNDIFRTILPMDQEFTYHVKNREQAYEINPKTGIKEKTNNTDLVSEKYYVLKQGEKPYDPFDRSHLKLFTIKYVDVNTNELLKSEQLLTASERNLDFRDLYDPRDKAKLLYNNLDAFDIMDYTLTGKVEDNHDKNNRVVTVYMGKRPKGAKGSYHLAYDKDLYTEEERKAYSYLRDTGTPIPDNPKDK

Large T antigen = Large T antigen (Simian virus 40, UniProt P03070); assay type: functional, Betapolyomavirus macacae;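 further: Confirmatory-stage PubChem screen for compounds that inhibit SV40 T antigen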
Chain of Large T antigen (P03070 whole entry): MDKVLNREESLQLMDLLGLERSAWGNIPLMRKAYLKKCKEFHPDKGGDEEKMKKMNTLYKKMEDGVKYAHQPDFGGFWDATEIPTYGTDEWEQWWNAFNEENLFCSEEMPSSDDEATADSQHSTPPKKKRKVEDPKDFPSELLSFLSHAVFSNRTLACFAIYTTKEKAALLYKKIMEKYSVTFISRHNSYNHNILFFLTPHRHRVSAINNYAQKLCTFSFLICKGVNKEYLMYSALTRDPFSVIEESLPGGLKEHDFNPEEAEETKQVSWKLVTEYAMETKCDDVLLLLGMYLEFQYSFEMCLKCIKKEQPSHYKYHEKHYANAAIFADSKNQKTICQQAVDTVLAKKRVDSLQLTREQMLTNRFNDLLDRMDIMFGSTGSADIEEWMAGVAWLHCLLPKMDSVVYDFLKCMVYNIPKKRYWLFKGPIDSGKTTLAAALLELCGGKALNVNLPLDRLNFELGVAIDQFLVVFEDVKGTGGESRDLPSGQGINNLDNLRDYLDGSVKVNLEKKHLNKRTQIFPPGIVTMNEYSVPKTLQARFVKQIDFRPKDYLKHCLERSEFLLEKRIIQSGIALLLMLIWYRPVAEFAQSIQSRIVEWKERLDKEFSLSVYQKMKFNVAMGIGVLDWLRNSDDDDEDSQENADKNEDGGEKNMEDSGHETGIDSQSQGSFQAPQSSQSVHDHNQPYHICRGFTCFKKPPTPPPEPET

[15] = molecular target: T4, Rac GTPase-activating protein 1 (Homo sapiens, UniProt Q9H0H5); assay: blockers of MgcRacGAP-driven Rac1 GTP hydrolysis – biochemical, ADP Hunter fluorescence, primary and confirmatory, confirmation (AID 624330); assay type: functional
T4 sequence (Q9H0H5 whole entry): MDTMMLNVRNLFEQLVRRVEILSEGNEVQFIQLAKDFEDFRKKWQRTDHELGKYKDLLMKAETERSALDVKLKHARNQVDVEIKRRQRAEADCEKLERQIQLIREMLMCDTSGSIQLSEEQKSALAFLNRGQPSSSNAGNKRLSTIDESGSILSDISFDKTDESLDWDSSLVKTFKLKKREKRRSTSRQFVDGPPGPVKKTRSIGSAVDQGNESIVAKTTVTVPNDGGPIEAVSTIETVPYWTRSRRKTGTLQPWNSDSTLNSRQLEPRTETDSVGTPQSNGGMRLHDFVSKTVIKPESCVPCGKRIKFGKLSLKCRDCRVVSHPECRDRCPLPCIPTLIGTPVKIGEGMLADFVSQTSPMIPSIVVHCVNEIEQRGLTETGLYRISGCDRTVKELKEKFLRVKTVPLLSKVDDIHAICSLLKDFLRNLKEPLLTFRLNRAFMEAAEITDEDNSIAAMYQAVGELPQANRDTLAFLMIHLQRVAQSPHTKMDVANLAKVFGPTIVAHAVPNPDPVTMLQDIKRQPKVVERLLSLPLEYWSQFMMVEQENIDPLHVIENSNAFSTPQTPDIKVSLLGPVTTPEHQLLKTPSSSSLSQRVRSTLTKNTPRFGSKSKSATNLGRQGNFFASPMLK

Cytochrome P450 2C9 = Cytochrome P450 2C9 (Homo sapiens, UniProt P11712)
Chain of Cytochrome P450 2C9 (P11712 whole entry): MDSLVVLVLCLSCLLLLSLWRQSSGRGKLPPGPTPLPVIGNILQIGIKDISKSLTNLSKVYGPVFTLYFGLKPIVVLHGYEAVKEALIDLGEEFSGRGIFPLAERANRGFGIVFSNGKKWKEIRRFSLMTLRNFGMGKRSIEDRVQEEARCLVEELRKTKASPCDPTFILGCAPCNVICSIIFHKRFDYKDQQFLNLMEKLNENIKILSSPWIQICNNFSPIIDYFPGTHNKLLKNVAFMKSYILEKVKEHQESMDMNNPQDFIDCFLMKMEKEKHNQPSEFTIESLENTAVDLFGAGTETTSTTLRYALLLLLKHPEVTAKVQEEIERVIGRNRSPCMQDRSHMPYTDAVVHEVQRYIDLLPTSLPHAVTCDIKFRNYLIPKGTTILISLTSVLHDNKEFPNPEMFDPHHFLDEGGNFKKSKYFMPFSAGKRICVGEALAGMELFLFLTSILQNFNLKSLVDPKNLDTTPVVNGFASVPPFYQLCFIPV

Cytochrome P450 1A2 = molecular target: T5, Cytochrome P450 1A2 (Homo sapiens, UniProt P05177);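 further: PubChem cytochrome P450 panel assay, CYP1A2 panel member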
T5 sequence (P05177 whole entry): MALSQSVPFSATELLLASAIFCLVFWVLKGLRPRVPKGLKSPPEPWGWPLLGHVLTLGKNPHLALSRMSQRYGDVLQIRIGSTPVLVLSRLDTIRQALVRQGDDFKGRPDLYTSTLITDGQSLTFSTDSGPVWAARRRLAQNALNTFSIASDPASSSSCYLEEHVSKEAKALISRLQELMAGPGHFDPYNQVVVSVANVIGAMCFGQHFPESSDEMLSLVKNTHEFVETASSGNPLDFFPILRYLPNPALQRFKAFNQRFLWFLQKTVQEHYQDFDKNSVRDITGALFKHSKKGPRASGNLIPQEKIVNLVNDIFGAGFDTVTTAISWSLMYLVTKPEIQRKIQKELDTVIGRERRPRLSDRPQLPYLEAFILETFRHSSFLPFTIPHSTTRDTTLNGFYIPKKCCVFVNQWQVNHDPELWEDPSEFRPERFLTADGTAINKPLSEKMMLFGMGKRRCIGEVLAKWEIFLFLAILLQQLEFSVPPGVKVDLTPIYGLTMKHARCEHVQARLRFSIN

COC(=O)c1cc2c(n1S(=O)(=O)c1ccc(C)cc1)C(=O)C(=O)c1[nH]cc(C(=O)OCc3ccccc3)c1-2
EC50 [1]: > 92.4 µM (inactive) | EC50 [2]: > 92.4 µM (inactive) | AC50 [3]: 1.64 µM (active) | EC50 (Mu-type opioid receptor): > 92.4 µM (inactive) | AC50 [4]: 1.94 µM (active) | AC50 [5]: 1.2 µM (active) | IC50 [6]: > 80 µM (inactive)

CC(NC(=O)c1ccc([N+](=O)[O-])o1)C12CC3CC(CC(C3)C1)C2 (configuration not stated)
EC50 [7]: > 120 µM (not active) | EC50 [8]: > 120 µM (not active) | EC50 (H4): 13.8 µM (active) | AC50 [9]: 15.1 µM (active) | AC50 [10]: 4.68 µM (active)

Cc1cc(/C=N/NC(=O)C(=O)N2CCCC2)c(C)n1-c1cccc(Br)c1
IC50 [11]: 13.8 µM (active)

Cc1cc(C)nc(-n2ncc3c2CC(c2cccc(Cl)c2)CC3=O)n1 (configuration not stated)
AC50 [12]: 46.8 µM (active) | AC50 [10]: 29.1 µM (active)

Nc1nc2cc([N+](=O)[O-])ccc2[nH]1
AC50 [13]: 7.07 µM (active)

Cc1ccc(C(=O)N/C(=C\c2ccc(-c3ccccc3[N+](=O)[O-])o2)C(=O)NCCN(C)C)cc1
AC50 [9]: 4.87 µM (active)

CC1=NC(C)(C)Cc2ccccc21.O=C(O)c1ccccc1O
AC50 (Cytochrome P450 2C19): inconclusive | IC50 [11]: 13.2 µM (active)

O=C(CSc1nnc(-c2ccc3c(c2)OCO3)o1)Nc1ncc(C(F)(F)F)cc1Cl
EC50 (Streptococcus): 20.4 µM (active) | AC50 [12]: 28.5 µM (active) | EC50 [14]: 1.16 µM (active) | AC50 [10]: 5.84 µM (active) | EC50 (Streptokinase A): > 150 µM (not active)

CCN1CCN(c2ncnc3scc(-c4ccc(OC)cc4)c23)CC1
IC50 [11]: 12.9 µM (active)

Brc1ccc(NC2=Nc3ccccc3CC2)cc1
EC50 [1]: > 92.5 µM (inactive) | EC50 [2]: > 92.5 µM (inactive) | EC50 (Mu-type opioid receptor): 52.1 µM (inactive)

CC1CCCCC1NC(=O)c1c(O)n2ccccc2nc1=O (configuration not stated)
IC50 [11]: 4.79 µM (active)

CC(/C=C/c1ccc(O)cc1)=N/O
AC50 [13]: 1.54 µM (active) | IC50 (Large T antigen): 8.82 µM (active) | IC50 [15]: 10.5 µM (active)

COc1ccc(C(C(=O)NC2CCCCC2)N(C(=O)Cc2c[nH]c3ccccc23)c2ccc(NC(C)=O)cc2)cc1OC (configuration not stated)
EC50 [1]: > 92.5 µM (inactive) | AC50 (Cytochrome P450 2C9): 12.6 µM (inconclusive) | EC50 [2]: > 92.5 µM (inactive) | EC50 (Mu-type opioid receptor): > 92.5 µM (inactive) | AC50 (Cytochrome P450 1A2): 25.1 µM (inconclusive)
